{"source": "patent US20100242127A1", "about": "“METHODS TO IDENTIFY MODULATORS OF B-RAF PROTEIN KINASE AND THEIR USE FOR THE TREATMENT OF ANXIETY AND DEPRESSION” (HELMHOLTZ ZENTRUM MUNCHEN, priority 2007, published 2010)", "origin": "cited, not measured here", "tested_on": "Mek", "settings": "mouse brain"}
{"substance": "PD184161", "values": [{"measurement": "behavioural phenotype after acute blockade of Mek", "value": "depressive-like phenotype"}, {"measurement": "effect on behavioural actions of antidepressants", "setting": "acute", "value": "counteract the behavioural actions of antidepressants"}]}
